Values quoted from earlier work in publication PMC12207366, “Protonated Glutamate and Aspartate Side Chains Can Recognize Phosphodiester Groups via Strong and Short Hydrogen Bonds in Biomacromolecular Complexes” (Angewandte Chemie (International Ed. in English), 2025).

Details: unstructured peptides; cited from earlier work

For `N[C@@H](CC(=O)O)C(=O)O` [aspartate], the “pKa of side chain carboxylate group” value is listed as about 3.9.
